These compounds were tested against T1, human OX2R (Homo sapiens, UniProt O43614) (assay: Evaluation of OX2R agonist activity (intracellular calcium, CHO-K1 cells with forced expression of human OX2R)). Conditions: CHO-K1 cells expressing human OX2R; 100% = 5 µM of the reference compound; read-out: hOX2R EC50.
T1 construct: host or cells: CHO-K1 (Chinese Hamster Ovary K1)
T1 sequence (O43614 1-444): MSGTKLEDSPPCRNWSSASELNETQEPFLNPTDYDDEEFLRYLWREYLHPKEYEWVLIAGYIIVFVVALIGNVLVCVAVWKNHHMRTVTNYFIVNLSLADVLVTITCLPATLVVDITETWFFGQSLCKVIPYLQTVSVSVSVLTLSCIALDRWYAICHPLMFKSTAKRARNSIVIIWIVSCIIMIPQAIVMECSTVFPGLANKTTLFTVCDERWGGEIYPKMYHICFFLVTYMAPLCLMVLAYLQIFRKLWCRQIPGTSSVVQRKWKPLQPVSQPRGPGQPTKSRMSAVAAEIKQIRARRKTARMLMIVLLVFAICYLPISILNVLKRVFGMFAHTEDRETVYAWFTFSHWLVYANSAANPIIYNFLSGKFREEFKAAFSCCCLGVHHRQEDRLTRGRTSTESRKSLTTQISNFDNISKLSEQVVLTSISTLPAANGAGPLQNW
Type: cell-based
Procedure: Evaluation of OX2R agonist activity
Chinese Hamster Ovary K1 (CHO-K1) cells (GenScript) with forced expression of human OX2R were seeded onto a 384 well microplate (Corning) at 7500 cells/well and cultured for 24 hours. 20 µL of the loading buffer (25 mM HEPES containing 1.25 mM of Probenecid and 2.5 µg/mL of Fluo 4-AM at final concentration, Hank's balanced salt solution, 0.06% Pluronic F-127, Quenching buffer) in the Calcium Kit II (DOJINDO LABORATORIES) was added, and the microplate was allowed to stand for 30 minutes. A reference compound (Example435 of WO 2019/027058, N-[(2S,3S)-2-[[3-(3,5-difluorophenyl)-2-fluoro-phenyl]methyl]-1-(2-hydroxy-2-methylpropanoyl)pyrrolidin-3-yl]ethanesulfonamide) or the test compound was added in 10 µL, and changes in intracellular calcium ion concentration were measured using FDSS7000EX (Hamamatsu Photonics K.K.) as a fluorescence intensity ratio obtained upon dual wavelength excitation at 480 nm and 540 nm. Note that the reference compound or test compound was dissolved in DMSO (final concentration of DMSO was 0.5%) and diluted with an assay buffer (20 mM HEPES, Hank's balanced salt solution, 0.1% BSA). The difference between the maximum and minimum fluorescence values between 5 and 7 seconds after the addition of the test compound or reference compound was used as the indicator. The value of wells to which the assay buffer containing no test compound was added was defined as 0%, and the value of wells to which 5 µM of the reference compound was added was defined as 100%. The 50% effective concentration (EC50 value) was determined from the values obtained when various concentrations of the test compound were added. […]

Row | Compound | EC50
1 | C[C@@H](O)C(=O)N1C2CC(C2)[C@H](NS(C)(=O)=O)[C@@H]1Cc1cccc(-c2cc(F)cc(F)c2)c1F [Example 16, N-{(3S,4S)-2-[(2R)-2-Hydroxypropanoyl]-3-[(2,3',5'-trifluoro[biphenyl]-3-yl)methyl]-2-azabicyclo[3.1.1]heptan-4-yl}methanesulfonamide] | 11 nM
2 | CC(C)C(=O)N1C2CC(C2)[C@H](NS(C)(=O)=O)[C@@H]1Cc1cccc(-c2ccccc2)c1F [Example 57, N-[(3S,4S)-3-[(2-Fluoro[biphenyl]-3-yl)methyl]-2-(2-methylpropanoyl)-2-azabicyclo[3.1.1]heptan-4-yl]methanesulfonamide] | 38 nM
3 | C[C@@H](O)C(=O)N1C2CC(C2)[C@H](NS(C)(=O)=O)[C@@H]1Cc1cccc(-c2cccc(C(F)F)n2)c1F [Example 47, N-{(3S,4S)-3-{3-[6-(Difluoromethyl)pyridin-2-yl]-2-fluorobenzyl}-2-[(2R)-2-hydroxypropanoyl]-2-azabicyclo[3.1.1]heptan-4-yl}methanesulfonamide] | 117 nM
4 | CCS(=O)(=O)N[C@H]1C2CC(C2)N(C(=O)C(C)(C)O)[C@H]1Cc1cccc(-c2cc(F)cc(F)c2)c1F (single isomer, unassigned) [Example 3] | 92 nM
5 | CS(=O)(=O)N[C@H]1C2CC(C2)N(C(=O)[C@H]2CCCO2)[C@H]1Cc1cccc(-c2cc(F)cc(F)c2)c1F [Example 17, N-{(3S,4S)-2-[(2R)-Tetrahydrofuran-2-ylcarbonyl]-3-[(2,3',5'-trifluoro[biphenyl]-3-yl)methyl]-2-azabicyclo[3.1.1]heptan-4-yl}methanesulfonamide] | 108 nM
6 | Cc1cccc(-c2cccc(C[C@H]3[C@@H](NS(C)(=O)=O)C4CC(C4)N3C(=O)C(C)(C)O)c2F)c1 [Example 11, N-[(3S,4S)-3-[(2-Fluoro-3'-methyl[biphenyl]-3-yl)methyl]-2-(2-hydroxy-2-methylpropanoyl)-2-azabicyclo[3.1.1]heptan-4-yl]methanesulfonamide] | 60 nM
7 | CC(C)(O)C(=O)N1C2CC(F)(C2)C(NS(C)(=O)=O)C1Cc1cccc(-c2cc(F)cc(F)c2)c1F (single isomer, unassigned) [Example 12, N-{5-Fluoro-2-(2-hydroxy-2-methylpropanoyl)-3-[(2,3',5'-trifluoro[biphenyl]-3-yl)methyl]-2-azabicyclo[3.1.1]heptan-4-yl}methanesulfonamide] | 27 nM
8 | CCS(=O)(=O)NC1C2CC(C2)N(C(=O)C23CC(C2)C3)C1Cc1cccc(-c2cc(F)cc(F)c2)c1F (single isomer, unassigned) [Example 5, N-{2-(Bicyclo[1.1.1]pentan-1-ylcarbonyl)-3-[(2,3',5'-trifluoro[biphenyl]-3-yl)methyl]-2-azabicyclo[3.1.1]heptan-4-yl}ethanesulfonamide] | 239 nM
9 | CC(C)(F)C(=O)N1C2CC(F)(C2)[C@H](NS(C)(=O)=O)[C@@H]1Cc1cccc(-c2ccccc2)c1F (single isomer, unassigned) [Example 85] | 275 nM
10 | C[C@@H](O)C(=O)N1C2CC(C2)[C@H](NS(C)(=O)=O)[C@@H]1Cc1cccc(-c2cccc(F)c2)c1F [Example 40, N-{(3S,4S)-3-[(2,3'-Difluoro[biphenyl]-3-yl)methyl]-2-[(2R)-2-hydroxypropanoyl]-2-azabicyclo[3.1.1]heptan-4-yl}methanesulfonamide] | 49 nM
11 | CC(C)(O)C(=O)N1C2CC(C2)[C@H](NS(C)(=O)=O)[C@@H]1Cc1cccc(-c2cc(F)cc(F)c2)c1F (single isomer, unassigned) [Example 1] | 67 nM
12 | CC(=O)N1C2CC(F)(C2)[C@H](NS(C)(=O)=O)[C@@H]1Cc1cccc(-c2cccc(Cl)c2)c1F [Example 46, N-{(3S,4R)-2-Acetyl-3-[(3'-chloro-2-fluoro[biphenyl]-3-yl)methyl]-5-fluoro-2-azabicyclo[3.1.1]heptan-4-yl}methanesulfonamide] | 106 nM
13 | CNC(=O)N1C2CC(C2)[C@H](NS(C)(=O)=O)[C@@H]1Cc1cccc(-c2cc(F)cc(F)c2)c1F [Example 27, (3S,4S)-N-Methyl-4-[(methylsulfonyl)amino]-3-[(2,3',5'-trifluoro[biphenyl]-3-yl)methyl]-2-azabicyclo[3.1.1]heptane-2-carboxamide] | 61 nM
14 | COCC(=O)N1C2CC(C2)[C@H](NS(C)(=O)=O)[C@@H]1Cc1cccc(-c2cc(F)cc(F)c2)c1F [Example 28, N-{(3S,4S)-2-(Methoxyacetyl)-3-[(2,3',5'-trifluoro[biphenyl]-3-yl)methyl]-2-azabicyclo[3.1.1]heptan-4-yl}methanesulfonamide] | 247 nM
15 | CCS(=O)(=O)N[C@H]1C2CC(C2)N(C(=O)[C@@H](C)O)[C@H]1Cc1cccc(-c2ccccc2)c1F (single isomer, unassigned) [Example 80] | 16 nM
16 | CS(=O)(=O)N[C@@H]1[C@H](Cc2cc(F)cc(-c3cccc(Cl)c3)c2F)N(C(=O)[C@H](O)C(F)(F)F)C2CC1(F)C2 (single isomer, unassigned) [Example 82] | 79 nM
17 | CC(C)(O)C(=O)N1C2CC(C2)[C@H](NS(C)(=O)=O)[C@@H]1Cc1cccc(-c2cccc(Cl)n2)c1F [Example 21, N-[(3S,4S)-3-[3-(6-Chloropyridin-2-yl)-2-fluorobenzyl]-2-(2-hydroxy-2-methylpropanoyl)-2-azabicyclo[3.1.1]heptan-4-yl]methanesulfonamide] | 217 nM
18 | CS(=O)(=O)N[C@H]1C2CC(C2)N(C(=O)C2(F)CC2)[C@H]1Cc1cccc(-c2cc(F)cc(F)c2)c1F [Example 19, N-{(3S,4S)-2-[(1-Fluorocyclopropyl)carbonyl]-3-[(2,3',5'-trifluoro[biphenyl]-3-yl)methyl]-2-azabicyclo[3.1.1]heptan-4-yl}methanesulfonamide] | 380 nM
19 | CS(=O)(=O)N[C@H]1C2CC(C2)N(C(=O)C(O)C(F)F)[C@H]1Cc1cccc(-c2ccccc2)c1F (single isomer, unassigned) [Example 72] | 112 nM
20 | CC(C)NC(=O)N1C2CC(C2)[C@H](NS(C)(=O)=O)[C@@H]1Cc1cccc(-c2cc(F)cc(F)c2)c1F [Example 35, (3S,4S)-4-[(Methylsulfonyl)amino]-N-(propan-2-yl)-3-[(2,3',5'-trifluoro[biphenyl]-3-yl)methyl]-2-azabicyclo[3.1.1]heptane-2-carboxamide] | 75 nM
21 | CS(=O)(=O)N[C@@H]1[C@H](Cc2cccc(-c3ccccc3)c2F)N(C(=O)c2ccon2)C2CC1(F)C2 (single isomer, unassigned) [Example 84] | 231 nM
22 | CS(=O)(=O)N[C@@H]1[C@H](Cc2cccc(-c3ccccc3)c2F)N(C(=O)c2cocn2)C2CC1(F)C2 [Example 55, N-[(3S,4R)-5-Fluoro-3-[(2-fluoro[biphenyl]-3-yl)methyl]-2-(1,3-oxazol-4-ylcarbonyl)-2-azabicyclo[3.1.1]heptan-4-yl]methanesulfonamide] | 591 nM
23 | CS(=O)(=O)N[C@H]1C2CC(C2)N(C(=O)[C@@H]2C[C@H]2F)[C@H]1Cc1cccc(-c2cc(F)cc(F)c2)c1F [Example 30, N-{(3S,4S)-2-{[(1S,2R)-2-Fluorocyclopropyl]carbonyl}-3-[(2,3',5'-trifluoro[biphenyl]-3-yl)methyl]-2-azabicyclo[3.1.1]heptan-4-yl}methanesulfonamide] | 148 nM
24 | C[C@@H](O)C(=O)N1C2CC(F)(C2)C(NS(C)(=O)=O)C1Cc1cccc(-c2cc(F)cc(F)c2)c1F (single isomer, unassigned) [Example 23, N-{(3S,4R)-5-Fluoro-2-[(2R)-2-hydroxypropanoyl]-3-[(2,3',5'-trifluoro[biphenyl]-3-yl)methyl]-2-azabicyclo[3.1.1]heptan-4-yl}methanesulfonamide or N-{(3R,4S)-5-fluoro-2-[(2R)-2-hydroxypropanoyl]-3-[(2,3',5'-trifluoro[biphenyl]-3-yl)methyl]-2-azabicyclo[3.1.1]heptan-4-yl}methanesulfonamide] | 34 nM
25 | CS(=O)(=O)N[C@@H]1[C@H](Cc2cccc(-c3ccccc3)c2F)N(C(=O)[C@@H]2CC2(F)F)C2CC1(F)C2 [Example 78, N-{(3S,4R)-2-{[(1S)-2,2-Difluorocyclopropyl]carbonyl}-5-fluoro-3-[(2-fluoro[biphenyl]-3-yl)methyl]-2-azabicyclo[3.1.1]heptan-4-yl}methanesulfonamide] | 69 nM

From patent EP4635944A1, “2-AZABICYCLO[3.1.1]HEPTANE COMPOUND” (Daiichi Sankyo Company, Limited, priority 2022, dated 2024)
